Data reported in PubChem BioAssay AID330 (DTP/NCI, 2004).
Values joined by “and” are separate entries in the source; they are usually repeats but may differ in a detail not shown here. Equal values may be shown once. Inconclusive results and toxic doses are left out.

System: P388 leukemia ip, CD2F1 mice, survival T/C
Test: NCI In Vivo Anticancer Drug Screen. Data for tumor model P388 Leukemia (intraperitoneal) in CD2F1 (CDF1) mice
Settings: endpoint: median survival time, higher = longer survival
Summary of the method: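 Mice carrying the transplanted tumor received test compound or vehicle. Survival was recorded in each group, and the value is the treated-group measurement divided by that of the vehicle-treated control group.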

[1] = dose: 50.0 mg/kg/injection, schedule: Q01DX005 (ip), vehicle: saline with Tween-80
[2] = dose: 100.0 mg/kg/injection, schedule: Q01DX005 (ip), vehicle: saline with Tween-80
[3] = dose: 200.0 mg/kg/injection, schedule: Q01DX005 (ip), vehicle: saline with Tween-80
[4] = dose: 25.0 mg/kg/injection, schedule: Q04DX003 (ip), vehicle: saline with Tween-80
[5] = dose: 50.0 mg/kg/injection, schedule: Q04DX003 (ip), vehicle: saline with Tween-80

O=[N+]1C=Cc2ccccc2C1=C1c2ccccc2C=CN1[O-]
T/C (dose: 25.0 mg/kg/injection, schedule: Q01DX005 (ip), vehicle: saline with Tween-80): 101 % of control | T/C [1]: 97 % of control | T/C [2]: 103 % of control

CC(=O)OCC1OC(N2C(=O)c3ccccc3S2(=O)=O)C(OC(C)=O)C(OC(C)=O)C1OC(C)=O (stereo not drawn)
T/C (dose: 100.0 mg/kg/injection, schedule: Q04DX002 (ip), vehicle: saline with Tween-80): 100 % of control | T/C (dose: 200.0 mg/kg/injection, schedule: Q04DX002 (ip), vehicle: saline with Tween-80): 91 % of control | T/C (dose: 400.0 mg/kg/injection, schedule: Q04DX002 (ip), vehicle: saline with Tween-80): 96 % of control

CCSc1cccc2nncn12
T/C (dose: 50.0 mg/kg/injection, schedule: Q01DX001 (ip), vehicle: saline): 103 % of control | T/C (dose: 100.0 mg/kg/injection, schedule: Q01DX001 (ip), vehicle: saline): 100 % of control | T/C (dose: 200.0 mg/kg/injection, schedule: Q01DX001 (ip), vehicle: saline): 100 % of control

Cc1ccc2c(O)c3c(cc2c1)C(=O)c1c2c(cc(O)c1C3=O)C1(C)OC(O2)C(O)C(N(C)C)C1O (stereo not drawn)
T/C (dose: 1.6 mg/kg/injection, schedule: Q01DX009 (ip), vehicle: other): 97 % of control | T/C (dose: 3.13 mg/kg/injection, schedule: Q01DX009 (ip), vehicle: other): 98 % of control | T/C (dose: 6.25 mg/kg/injection, schedule: Q01DX009 (ip), vehicle: other): 87 % of control | T/C (dose: 12.5 mg/kg/injection, schedule: Q01DX009 (ip), vehicle: other): 116 % of control | T/C (dose: 25.0 mg/kg/injection, schedule: Q01DX009 (ip), vehicle: other): 97 % of control

O=C(NCCN1CCC(n2c(=O)[nH]c3cc(Cl)ccc32)CC1)c1ccc(F)cc1
T/C [1]: 95 % of control | T/C [2]: 88 % of control | T/C [3]: 90 % of control

CCCOc1ccc2c(NCCCCCCCCNc3c4ccccc4nc4cc(OCCC)ccc34)c3ccccc3nc2c1
T/C (dose: 0.63 mg/kg/injection, schedule: Q01DX009 (ip), vehicle: other): 109 % of control | T/C (dose: 1.25 mg/kg/injection, schedule: Q01DX009 (ip), vehicle: lactic acid): 162 % of control | T/C (dose: 7.5 mg/kg/injection, schedule: Q01DX009 (ip), vehicle: other): 90 % of control

O=C1CCC(N2CCCCC2)CCC1(c1ccccc1)c1ccccc1 (stereo not drawn)
T/C [1]: 106 % of control | T/C [2]: 103 % of control | T/C [3]: 96 % of control

CCC(NCC(C)C)NCC(C)C
T/C (dose: 25.0 mg/kg/injection, schedule: Q04DX003 (ip), vehicle: saline): 100 % of control | T/C (dose: 50.0 mg/kg/injection, schedule: Q04DX003 (ip), vehicle: saline): 109 % of control | T/C (dose: 100.0 mg/kg/injection, schedule: Q04DX003 (ip), vehicle: saline): 95 % of control

C=CC(=O)P(=O)(OCC)OCC
T/C (dose: 100.0 mg/kg/injection, schedule: Q04DX002 (ip), vehicle: saline): 107 % of control | T/C (dose: 200.0 mg/kg/injection, schedule: Q04DX002 (ip), vehicle: saline): 103 % of control | T/C (dose: 400.0 mg/kg/injection, schedule: Q04DX002 (ip), vehicle: saline): 98 % of control

O=NN(CCCl)C(=O)NC1CC2CCC1C2 (stereo not drawn)
T/C (dose: 12.5 mg/kg/injection, schedule: Q01DX009 (ip), vehicle: saline with Tween-80): 195 % of control | T/C (dose: 25.0 mg/kg/injection, schedule: Q01DX009 (ip), vehicle: saline with Tween-80): 250 % of control | T/C [4]: 225 % of control | T/C (dose: 33.0 mg/kg/injection, schedule: Q04DX003 (ip), vehicle: saline with Tween-80): 213 % of control | T/C (dose: 50.0 mg/kg/injection, schedule: Q01DX009 (ip), vehicle: saline with Tween-80): 109 % of control | T/C [5]: 204 % of control and 295 % of control | T/C (dose: 75.0 mg/kg/injection, schedule: Q04DX003 (ip), vehicle: saline with Tween-80): 90 % of control

O=C(O)CC1CC=CCC1CC(=O)O (stereo not drawn)
T/C (dose: 100.0 mg/kg/injection, schedule: Q01DX001 (ip), vehicle: saline sonified): 100 % of control | T/C (dose: 200.0 mg/kg/injection, schedule: Q01DX001 (ip), vehicle: saline sonified): 100 % of control | T/C (dose: 400.0 mg/kg/injection, schedule: Q01DX001 (ip), vehicle: saline sonified): 105 % of control

O=C(CCBr)c1ccc(Cl)cc1
T/C [4]: 107 % of control | T/C [5]: 103 % of control | T/C (dose: 100.0 mg/kg/injection, schedule: Q04DX003 (ip), vehicle: saline with Tween-80): 100 % of control

C=C(Cl)CN(CC)CCO
T/C (dose: 25.0 mg/kg/injection, schedule: Q01DX009 (ip), vehicle: saline sonified): 100 % of control | T/C (dose: 50.0 mg/kg/injection, schedule: Q01DX009 (ip), vehicle: saline sonified): 100 % of control | T/C (dose: 100.0 mg/kg/injection, schedule: Q01DX009 (ip), vehicle: saline sonified): 100 % of control

CCn1cnc(CC(NC(=O)C(F)(F)F)C(=O)O)c1 (stereo not drawn)
T/C (dose: 50.0 mg/kg/injection, schedule: Q01DX009 (ip), vehicle: Klucel (hydroxypropylcellulose) (HPC)): 94 % of control | T/C (dose: 100.0 mg/kg/injection, schedule: Q01DX009 (ip), vehicle: Klucel (hydroxypropylcellulose) (HPC)): 100 % of control | T/C (dose: 200.0 mg/kg/injection, schedule: Q01DX009 (ip), vehicle: Klucel (hydroxypropylcellulose) (HPC)): 98 % of control
